In patent publication US8088426B2, “Kokumi flavour compounds and use” (priority 2005, dated 2012):
“Also recorded” adds a separate entry of the source.

Columns and labels:
Format in all cases: in vivo
trained sensory panel [1] = test: Sensory triangle test, kokumi taste in chicken broth; settings: for Sensory descriptors: pH 6.5, versus broth without additives
Description: Unless otherwise indicated, all sensory tests are triangle tests and are performed according to the guidelines in “Amtliche Sammlung von Untersuchungsverfahren nach § 35 LMBG (Lebensmittel-und Bedarfsgegenständegesetz)”; L 00.90 7, Untersuchung von Lebensmitteln, Sensorische Prüfverfahren, Dreiecksprüfung (Übernahme der gleichnahmigen Deutschen Norm DIN ISO 4120, Ausgabe Januar 1995), as follows:
The sensory panel is trained to evaluate the taste of aqueous solutions (4 ml each) of the following standard taste compounds by using a triangle test as described in the literature (Wieser and Belitz, Z. Lebensm. Unters. Forsch., 1975, 159, 65-72): sucrose (40 mmol/L) for sweet taste; citric acid (5 mmol/L) for sour taste; NaCl (12 mmol/L) for salt taste; caffeine (2 mmol/L) for bitter taste; and monosodium glutamate (MSG) (6 mmol/L) for umami taste. For kokumi taste, a solution of GSH (glutathione, 10 mmol/L) in diluted chicken broth concentrate (Goumet Bouillon Huhn, Maggi, Singen, Germany; 3 g/100 g bottled water (Evian®)) is prepared and compared to the taste of chicken broth with no glutathione added.
All sensory analyses are performed in a sensory panel room at 22-25° C. over three different sessions by a trained panel of 8 to 10 individuals.
For recording the taste profiles, samples are prepared as indicated in the examples below. Taste profiles of samples are determined in a triangle test in three different sessions. Panellists refrain from eating or drinking for at least 1 hour prior to the session. At the start of the session and before each trial, the subject rinsed with water and expectorated. The participants receive a set of two blanks and one taste sample. Liquid samples are swirled around in the mouth briefly and expectorated. Solid samples are chewed for 20 seconds and then expectorated. […] Each sample with additive is compared to two reference samples without additives. Kokumi intensity is rated according to a scale from 0 to 5 (with 5 most intensive). The additive is added to a consumable and the sample is homogenised. The samples are presented to the sensory panel directly after homogenisation. The sensory panel in all tests included 8 trained individuals.
Chicken Broth is prepared by dilution of 3 g chicken broth concentrate (Gourmet Bouillon Huhn; Maggi, Singen, Germany) with 100 ml water (Evian). Additives are added as specified in table below.
For each sample, kokumi intensity is rated and panelists are asked to describe sensory characteristics.

trained sensory panel [2] = test: Sensory triangle test, kokumi compounds in tomato juice; settings: for Panelists preferring the sample: panel of 8; for Test results (taste description): versus reference without additives
Description: Unless otherwise indicated, all sensory tests are triangle tests and are performed according to the guidelines in “[…] von […]-und Bedarfsgegenständegesetz)”; L 00.90 7, Untersuchung von Lebensmitteln, Sensorische […] Deutschen Norm DIN ISO 4120, Ausgabe Januar 1995), as follows: All sensory analyses are performed in a sensory panel room at 22-25° C. over three different sessions by a trained panel of 8 to 10 individuals. For recording the taste profiles, samples are prepared as indicated in the examples below. Taste profiles of samples are determined in a triangle test in three different sessions. Panellists refrain from eating or drinking for at least 1 hour prior to the session. At the start of the session and before each trial, the subject rinsed with water and expectorated. The participants receive a set of two blanks and one taste sample. Liquid samples are swirled around in the mouth briefly and expectorated. Solid samples are chewed for 20 seconds and then expectorated. […] Each sample with additive is compared to two reference samples without additives. Kokumi intensity is rated according to a scale from 0 to 5 (with 5 most intensive). The additive is added to a consumable and the sample is homogenised. The samples are presented to the sensory panel directly after homogenisation. The sensory panel in all tests included 8 trained individuals. Compounds as indicated in the table below are added to tomato juice (Albi, Germany) in the concentrations indicated below.

trained sensory panel [3] = test: Sensory triangle test, kokumi compounds in ketchup; settings: 2500 ppm; for Panelists indicating more meaty, bouillon-like, intensified overall taste: panel of 8
Description: Unless otherwise indicated, all sensory tests are triangle tests and are performed according to the guidelines in “[…] von […]-und Bedarfsgegenständegesetz)”; L 00.90 7, Untersuchung von Lebensmitteln, Sensorische […] Deutschen Norm DIN ISO 4120, Ausgabe Januar 1995), as follows: All sensory analyses are performed in a sensory panel room at 22-25° C. over three different sessions by a trained panel of 8 to 10 individuals. For recording the taste profiles, samples are prepared as indicated in the examples below. Taste profiles of samples are determined in a triangle test in three different sessions. Panellists refrain from eating or drinking for at least 1 hour prior to the session. At the start of the session and before each trial, the subject rinsed with water and expectorated. The participants receive a set of two blanks and one taste sample. Liquid samples are swirled around in the mouth briefly and expectorated. Solid samples are chewed for 20 seconds and then expectorated. […] Each sample with additive is compared to two reference samples without additives. Kokumi intensity is rated according to a scale from 0 to 5 (with 5 most intensive). The additive is added to a consumable and the sample is homogenised. The samples are presented to the sensory panel directly after homogenisation. The sensory panel in all tests included 8 trained individuals. Compounds as indicated in the table below are added to ketchup (Kraft) in a concentration of 2500 ppm.

[4] = additive 10 mmol/L, pH 6.5, scale 0 to 5 (5 most intensive), broth without additives rated 2

`N[C@@H](CCC(=O)N[C@@H](CS)C(=O)NCC(=O)O)C(=O)O` [GSH, reduced form, Gamma-L-glutamyl-L-cysteinyl-glycine] was tested, and the “Kokumi intensity (0-5)” value (trained sensory panel [1]; [4]) was 3.5.

`N[C@@H](CCC(=O)O)C(=O)[O-].[Na+]` [MSG, mono sodium glutamate] was tested, and the “Kokumi intensity (0-5)” value (trained sensory panel [1]; [4]) was 2 and the Sensory descriptors (trained sensory panel [1]; additive 10 mmol/L) was “higher umami (taste of MSG) intensity; also recorded: no effect on mouthfulness and complexity of the taste profile; also recorded: Increased umami taste”.

With `[Cl-].[Na+]` [NaCl] the “Kokumi intensity (0-5)” value (trained sensory panel [1]; additive 30 mmol/L, pH 6.5, scale 0 to 5, broth without additives rated 2) was 2 and the Sensory descriptors (trained sensory panel [1]; additive 30 mmol/L) was “more salty than the negative control; also recorded: no effect on mouthfulness and complexity of the taste profile; also recorded: increased salty taste”.

`CCOC(=O)CC(SC[C@H](NC(=O)CC[C@H](N)C(=O)O)C(=O)O)C(=O)OCC` (stereo partly drawn) [S-(α,β-dicarboxyethyl diethylester) γ-L-glutamyl-L-cysteine] was tested, and the “Kokumi intensity (0-5)” value (trained sensory panel [1]; [4]) was 4.5, the “Panelists preferring the sample” value (trained sensory panel [2]; 1000 ppm) was “all panelists” and the “Test results (taste description)” value (trained sensory panel [2]; 1000 ppm) was “even more pronounced kokumi sensation”. For the same molecule, the “Panelists indicating more meaty, bouillon-like, intensified overall taste” value (trained sensory panel [3]) was 7 out of 8.

With `CCOC(=O)CC(SC[C@H](NC(=O)CC[C@H](N)C(=O)O)C(=O)NCC(=O)O)C(=O)OCC` (stereo partly drawn) [S-(α,β-dicarboxyethyl diethylester) γ-L-glutamyl-L-cysteinyl-glycine] the “Kokumi intensity (0-5)” value (trained sensory panel [1]; [4]) was 3.5, the “Panelists preferring the sample” value (trained sensory panel [2]; 1000 ppm) was 6 out of 8 and the “Test results (taste description)” value (trained sensory panel [2]; 1000 ppm) was “more intensive and well-balanced kokumi taste”. The “Test results (taste description)” value (trained sensory panel [2]; 5000 ppm) was “increased with ascending concentrations”, the “Observed effect compared to S-(α,β-dicarboxyethyl diethylester) γ-L-glutamyl-L-cysteine” value (trained sensory panel [3]) was “lower” and the “Panelists indicating more meaty, bouillon-like, intensified overall taste” value (trained sensory panel [3]) was 7 out of 8.

`COC(=O)CC(SC[C@H](NC(=O)CC[C@H](N)C(=O)O)C(=O)O)C(=O)OC` (stereo partly drawn) [S-(α,β-dicarboxyethyl dimethylester) γ-L-glutamyl-L-cysteine] was tested, and the “Kokumi intensity (0-5)” value (trained sensory panel [1]; [4]) was 4.5.

For `COC(=O)CC(SC[C@H](NC(=O)CC[C@H](N)C(=O)O)C(=O)NCC(=O)O)C(=O)OC` (stereo partly drawn) [S-(α,β-dicarboxyethyl dimethylester) γ-L-glutamyl-L-cysteinyl-glycine], the “Kokumi intensity (0-5)” value (trained sensory panel [1]; [4]) was 3.5.

`CCCOC(=O)CC(SC[C@H](NC(=O)CC[C@H](N)C(=O)O)C(=O)O)C(=O)OCCC` (stereo partly drawn) [S-(α,β-dicarboxyethyl dipropylester) γ-L-glutamyl-L-cysteine] was tested, and the Sensory descriptors (trained sensory panel [1]; additive 10 mmol/L) was “bitter”.

With `CCCOC(=O)CC(SC[C@H](NC(=O)CC[C@H](N)C(=O)O)C(=O)NCC(=O)O)C(=O)OCCC` (stereo partly drawn) [S-(α,β-dicarboxyethyl dipropylester) γ-L-glutamyl-L-cysteinyl-glycine] the Sensory descriptors (trained sensory panel [1]; additive 10 mmol/L) was “bitter”.
